Data as given in patent US10227321B2, “Soothing pro-pheromonal composition for mammals” (Melchior Material And Life Science France, priority 2014, dated 2019).

Assays:
[1] = Estimated amounts released into the atmosphere from the thermal diffuser; assay type: physicochemical; conditions: for Daily amount released into the atmosphere: at 100° C.
Description: Based on the preceding measurements, we can estimate that the amounts released over the 35-day period by molecules going into each composition are the following (in grams):
By considering that at 100° C., all of product 122:1 decomposes as was shown in Example 3, we can estimate the daily amounts of the various products released into the atmosphere according to the various formulae.

[2] = In vitro study of 2M2B release: climatic chamber, gas chromatography; assay type: physicochemical; conditions: solution of Example 2b
Description: Conditions A: 1) Solketal/KOH/RI/DMSO/50° C. 2) APTS/MeOH/H2O. Conditions B: 1) Solketal/KOH/RBr/Toluene/DS/2) APTS/MeOH/H2O. Conditions C: 1) CH2Cl2/Et3N/MsCl 2) Solketal/KOH/ROMs/Toluene/DS/Δ3) APTS/MeOH/H2O. GC Method Used: Equipment: GC, Hewlett Packard 5890 Series II Detector FID Column: HP5 30 m, 0.53 mm, 0.88 μm Pressure: 11 psi Injection volume: 1 μL Sample preparation: 4 mg/mL in AcOEt Injector temperature: 270° C. Detector temperature: 280° C. Oven:
The solution prepared in Example 2b is used in a climatic chamber at 100° C. and 30° C. (conditions corresponding either to the temperature of a thermal diffuser or to room temperature). Samples are taken at regular intervals and the disappearance of compound 122:1 and the appearance of C22:1 AKG is measured by gas chromatography. The results are presented in the following table (the percentages are expressed only taking into consideration integration relative to compound 118 and of C18:0 AKG): […]

dogs = conditions: dog, in vivo; cited from earlier work

SMILES: C/C=C(\C)C1OCC(COCCCCCCCCCCCC/C=C\CCCCCCCC)O1 (centres unmarked) [C22:1 AKG]
- Daily amount released into the atmosphere ([1]; 2% Formula (2e)): 0.14 mg
- Daily amount released into the atmosphere ([1]; 5% Formula (2d)): 0.14 mg
- Daily amount released into the atmosphere ([1]; 10% Formula (2c)): 1.2 mg

SMILES: C/C=C(\C)C1OCC(COCCCCCCCCCCCC/C=C\CCCCCCCC)O1 (centres unmarked) [122:1]
- amount released over the 35-day period ([1]; from Formula 2c): 0.05 grams
- amount released over the 35-day period ([1]; from Formula 2e): 0.0063 grams
- amount released over the 35-day period ([1]; from Formula 2d): 0.0063 grams

SMILES: CCCCCCCCCCCCCCCCCCOCC(O)CO (centres unmarked) [C18:0 AKG]
- % (GC integration relative to compound 118 and C18:0 AKG) ([2]; T = 30° C., 1 d): 0%
- % (GC integration relative to compound 118 and C18:0 AKG) ([2]; T = 30° C., 2 d): 0%
- % (GC integration relative to compound 118 and C18:0 AKG) ([2]; T = 30° C., 7 d): 0%
- % (GC integration relative to compound 118 and C18:0 AKG) ([2]; T = 30° C., 14 d): 0.5%
- % (GC integration relative to compound 118 and C18:0 AKG) ([2]; T = 30° C., 21 d): 1%
- % (GC integration relative to compound 118 and C18:0 AKG) ([2]; T = 30° C., 28 d): 1%
- % (GC integration relative to compound 118 and C18:0 AKG) ([2]; T = 30° C., time 0): 0%
- % (GC integration relative to compound 118 and C18:0 AKG) ([2]; T = 100° C., 3 h): 48%
- % (GC integration relative to compound 118 and C18:0 AKG) ([2]; T = 100° C., 6 h): 75%
- % (GC integration relative to compound 118 and C18:0 AKG) ([2]; T = 100° C., 1 d): 98%
- % (GC integration relative to compound 118 and C18:0 AKG) ([2]; T = 100° C., 2 d): 100%
- % (GC integration relative to compound 118 and C18:0 AKG) ([2]; T = 100° C., 7 d): 100%
- % (GC integration relative to compound 118 and C18:0 AKG) ([2]; T = 100° C., 14 d): 100%
- % (GC integration relative to compound 118 and C18:0 AKG) ([2]; T = 100° C., 21 d): 100%
- % (GC integration relative to compound 118 and C18:0 AKG) ([2]; T = 100° C., 28 d): 100%
- % (GC integration relative to compound 118 and C18:0 AKG) ([2]; climatic chamber, T = 100° C., time 0): 0%

SMILES: CCCCC/C=C\C/C=C\CCCCCCCC(=O)O [Linoleic acid]
- Daily amount released into the atmosphere ([1]; 2% Formula (2e)): 5.8 mg
- Daily amount released into the atmosphere ([1]; 5% Formula (2d)): 5.1 mg
- Daily amount released into the atmosphere ([1]; 10% Formula (2c)): 5.5 mg
- amount released over the 35-day period ([1]; from Formula 2c): 0.195 grams
- amount released over the 35-day period ([1]; from Formula 2e): 0.2 grams
- amount released over the 35-day period ([1]; from Formula 2d): 0.188 grams

SMILES: CC=C(C)C=O [2-Methyl-2-butenal, 2-methyl-2-butenal]
- effect on dogs (dogs): has an effect on the heartbeat and the behavior of dogs
- Daily amount released into the atmosphere ([1]; 2% Formula (2e)): 0.036 mg
- Daily amount released into the atmosphere ([1]; 5% Formula (2d)): 36 mg
- Daily amount released into the atmosphere ([1]; 10% Formula (2c)): 0.32 mg
